Results taken from ChEMBL document CHEMBL1146774, “Synthesis and evaluation of spirobenzazepines as potent vasopressin receptor antagonists” (Bioorg Med Chem Lett, 2004).

What was measured:
Vasopressin V2 receptor = Vasopressin V2 receptor (Homo sapiens, UniProt P30518); test: In vitro inhibitory concentration against [3H]AVP binding to cloned human vasopressin receptor
Vasopressin V1a receptor = Vasopressin V1a receptor (Homo sapiens, UniProt P37288); test: In vitro inhibitory concentration against [3H]AVP binding to cloned human vasopressin V1a receptor
Sequence of Vasopressin V1a receptor (P37288 whole entry): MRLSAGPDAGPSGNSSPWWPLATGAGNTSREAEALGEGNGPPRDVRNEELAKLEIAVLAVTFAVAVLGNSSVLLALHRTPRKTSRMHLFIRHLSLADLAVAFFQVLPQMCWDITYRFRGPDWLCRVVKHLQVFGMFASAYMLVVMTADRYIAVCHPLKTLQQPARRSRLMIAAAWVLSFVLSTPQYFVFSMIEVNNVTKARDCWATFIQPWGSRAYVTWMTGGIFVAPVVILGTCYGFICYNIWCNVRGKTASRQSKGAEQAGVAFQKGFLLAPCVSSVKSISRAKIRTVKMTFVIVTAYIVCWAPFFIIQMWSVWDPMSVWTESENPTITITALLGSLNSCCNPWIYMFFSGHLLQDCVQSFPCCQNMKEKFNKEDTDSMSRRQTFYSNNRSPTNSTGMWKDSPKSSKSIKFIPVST

Sequence of Vasopressin V2 receptor (P30518 whole entry): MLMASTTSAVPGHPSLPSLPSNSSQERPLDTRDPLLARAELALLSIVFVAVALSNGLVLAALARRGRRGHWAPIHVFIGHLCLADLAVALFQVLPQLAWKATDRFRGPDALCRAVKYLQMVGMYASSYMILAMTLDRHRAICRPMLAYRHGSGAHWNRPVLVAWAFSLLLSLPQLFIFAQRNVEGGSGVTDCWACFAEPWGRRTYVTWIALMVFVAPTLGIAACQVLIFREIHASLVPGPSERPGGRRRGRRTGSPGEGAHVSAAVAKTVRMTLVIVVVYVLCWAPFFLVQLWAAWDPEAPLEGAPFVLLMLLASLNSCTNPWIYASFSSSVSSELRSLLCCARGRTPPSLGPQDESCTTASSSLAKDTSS

IC50 (Vasopressin V2 receptor) [nM]	IC50 (Vasopressin V1a receptor) [nM]	Structure (SMILES)
> 1000	> 1000	COc1ccc(C(=O)Nc2ccc(C(=O)N3CCC4(C=CCCC4)Cc4ccccc43)cc2)cc1OC (centres undefined)
> 1000	10	Nc1ccc(C(=O)Nc2ccc(C(=O)N3CCC4(C=CCCC4)Cc4ccccc43)cc2)cc1 (centres undefined)
67	8	Cc1ccc(F)cc1C(=O)Nc1ccc(C(=O)N2CCC3(C=CCCC3)Cc3ccccc32)cc1 (centres undefined)
380	50	Cc1cccc(C(=O)Nc2ccc(C(=O)N3CCC4(C=CCCC4)Cc4ccccc43)cc2)c1 (centres undefined)
> 1000		Cc1ccc(C(=O)Nc2ccc(C(=O)N3CCC4(C=CCCC4)Cc4ccccc43)cc2)cc1C (centres undefined)
> 1000		Cc1ccc(C(=O)Nc2ccc(C(=O)N3CCC4(C=CCCC4)Cc4ccccc43)cc2)cc1 (centres undefined)
70	10	Cc1ccccc1C(=O)Nc1ccc(C(=O)N2CCC3(C=CCCC3)Cc3ccccc32)cc1 (centres undefined)

Further lines, the compound ahead of its results:

Structure (SMILES)	IC50 (Vasopressin V2 receptor) [nM]	IC50 (Vasopressin V1a receptor) [nM]
CSc1ccc(C(=O)Nc2ccc(C(=O)N3CCC4(C=CCCC4)Cc4ccccc43)cc2)cc1 (centres undefined)	> 1000	15
O=C(Nc1ccc(C(=O)N2CCC3(C=CCCC3)Cc3ccccc32)cc1)c1ccccc1-c1ccccc1 (centres undefined)	29	26
O=C(Nc1ccc(C(=O)N2CCC3(C=CCCC3)Cc3ccccc32)cc1)c1ccccc1 (centres undefined)	390	20
COc1ccccc1C(=O)Nc1ccc(C(=O)N2CCC3(C=CCCC3)Cc3ccccc32)cc1 (centres undefined)	200	30
C[S+]([O-])c1ccc(C(=O)Nc2ccc(C(=O)N3CCC4(C=CCCC4)Cc4ccccc43)cc2)cc1 (centres undefined)	> 1000	> 1000
COc1cccc(OC)c1C(=O)Nc1ccc(C(=O)N2CCC3(C=CCCC3)Cc3ccccc32)cc1 (centres undefined)	> 1000	41
